Test results: BigSolDB 2.1

O=C(O)c1cccc([N+](=O)[O-])c1C(=O)O
Details	solubility (mole fraction)
in 1,4-dioxane, 288.17 K	0.0758
in 1,4-dioxane, 293.28 K	0.0868
in 1,4-dioxane, 298.31 K	0.097
in 1,4-dioxane, 303.29 K	0.107
in 1,4-dioxane, 308.26 K	0.116
in 1,4-dioxane, 313.2 K	0.124
in 1,4-dioxane, 318.21 K	0.132
in 1,4-dioxane, 323.29 K	0.139
in 1,4-dioxane, 328.19 K	0.146
in 1,4-dioxane, 333.18 K	0.152
in 1,4-dioxane, 338.22 K	0.158
in 1,4-dioxane, 343.16 K	0.163
in 1,4-dioxane, 348.23 K	0.167
in 1,4-dioxane, 353.32 K	0.171
in THF, 278.28 K	0.203
in THF, 283.17 K	0.204
in THF, 288.16 K	0.204
in THF, 293.21 K	0.205
in THF, 298.29 K	0.206
in THF, 303.28 K	0.207
in THF, 308.19 K	0.208
in THF, 313.23 K	0.209
in THF, 318.24 K	0.21
in THF, 323.16 K	0.211
in THF, 328.19 K	0.213
in THF, 333.17 K	0.214
in acetone, 278.16 K	0.0525
in acetone, 283.18 K	0.0541
in acetone, 288.27 K	0.056
in acetone, 293.33 K	0.0582
in acetone, 298.24 K	0.0604
in acetone, 303.19 K	0.0629
in acetone, 308.32 K	0.0657
in acetone, 313.16 K	0.0685
in acetone, 318.2 K	0.0717
in ethyl acetate, 283.2 K	0.00793
in ethyl acetate, 288.26 K	0.00847
in ethyl acetate, 293.28 K	0.00902
in ethyl acetate, 298.19 K	0.00958
in ethyl acetate, 303.21 K	0.0102
in ethyl acetate, 308.3 K	0.0109
in ethyl acetate, 313.16 K	0.0116
in ethyl acetate, 318.22 K	0.0124
in ethyl acetate, 323.16 K	0.0134
in ethyl acetate, 328.23 K	0.0144
in ethyl acetate, 333.17 K	0.0156
in ethyl formate, 283.17 K	0.00268
in ethyl formate, 288.18 K	0.00287
in ethyl formate, 293.21 K	0.00309
in ethyl formate, 298.26 K	0.00335
in ethyl formate, 303.16 K	0.00363
in ethyl formate, 308.19 K	0.00396
in ethyl formate, 313.27 K	0.00433
in ethyl formate, 318.25 K	0.00473
in ethyl formate, 323.29 K	0.00517
in methyl acetate, 278.17 K	0.0334
in methyl acetate, 283.26 K	0.0343
in methyl acetate, 288.27 K	0.0353
in methyl acetate, 293.21 K	0.0365
in methyl acetate, 298.24 K	0.0378
in methyl acetate, 303.16 K	0.0392
in methyl acetate, 308.22 K	0.0407
in methyl acetate, 313.28 K	0.0422
in methyl acetate, 318.17 K	0.0437
in methyl acetate, 323.19 K	0.0452
in n-butyl acetate, 283.18 K	0.00243
in n-butyl acetate, 288.16 K	0.00297
in n-butyl acetate, 293.21 K	0.00353
in n-butyl acetate, 298.19 K	0.0041
in n-butyl acetate, 303.22 K	0.0047
in n-butyl acetate, 308.26 K	0.00531
in n-butyl acetate, 313.27 K	0.00594
in n-butyl acetate, 318.18 K	0.00657
in n-butyl acetate, 323.22 K	0.00724
in n-butyl acetate, 328.24 K	0.00792
in n-butyl acetate, 333.19 K	0.0086
in n-butyl acetate, 338.28 K	0.00933
in n-butyl acetate, 343.25 K	0.0101
in n-butyl acetate, 348.24 K	0.0108
in n-butyl acetate, 353.26 K	0.0116
in water, 283.18 K	0.00115
in water, 288.26 K	0.00129
in water, 293.27 K	0.00152
in water, 298.21 K	0.00179
in water, 303.19 K	0.00211
in water, 308.22 K	0.0025
in water, 313.19 K	0.003
in water, 318.29 K	0.00367
in water, 323.18 K	0.00451
in water, 328.31 K	0.00569
in water, 333.22 K	0.00724
in water, 338.18 K	0.00943
in water, 343.17 K	0.0126
in water, 348.16 K	0.0172
in water, 353.28 K	0.0241
